Experiment: Plasma and brain levels of the components by LC-MS/MS after 10 days of HFD containing the exemplary composition
Text: In all studies described below, animals on the test diet received either a high fat diet (HFD) or a low-fat diet (LFD) ad libitum, with the diet further containing the components listed in Table 5.
Adult female wild-type C57/BL6 (Envigo) were used for the experiments. The animals were group housed in plastic cages (3-5 animals/cage) and had access to food and water ad libitum. Experiments were approved by the Institutional Animal Care and Use Committee of Brains On-Line LLC, South San Francisco, CA.
Mice were fed a HFD containing a composition comprising nicotinic acid, berberine, silibinin, lipoic acid and taurine (see Table 5) for 10 days. Subjects were euthanized, and plasma and brain samples were collected after 10 days feeding with a HFD containing the composition. The blood was collected into a vial already containing EDTA anticoagulant. The blood was centrifuged at 2500×g at 4° C. for 10 minutes. Supernatants were stored as plasma samples at −80° C. Immediately following blood collection, whole brains were rapidly extracted, placed into a pre-weighed tube, and weighed. Samples were snap frozen with liquid nitrogen.
Levels of nicotinic acid, berberine, silibinin (active form of Siliphos®), lipoic acid and taurine were quantified in plasma and brain samples by LC-MS/MS.

[1] = female, C57/BL6, mouse, in vivo
[2] = female, C57/BL6, mouse, in vivo, 10 days

Row | concentration at 10 days [1] | Basal Plasma (basal plasma level, mice, LC-MS/MS) | Cumulative Brain [2] | Basal Brain (mouse, in vivo) | Basal Brain [1] | Basal Plasma (mouse, in vivo) | Cumulative Plasma [2] | Structure (SMILES) | Cumulative Brain (brain after 10 days administration in HFD, mice)
1 | 68.2 nM | <LLOQ | 21 pmol/g | <LLOQ |  |  |  | O=C(O)CCCCC1CCSS1 (stereo not drawn) [Lipoic acid] | 
2 | 1360 nM |  | 12600 pmol/g |  | 9.4 nmol/g | <LLOQ |  | O=C(O)c1cccnc1 [Nicotinic acid] | 
3 |  |  | 12.9 pmol/g |  |  |  | 21 nM | COc1cc(C2Oc3cc([C@H]4Oc5cc(O)cc(O)c5C(=O)[C@@H]4O)ccc3OC2CO)ccc1O (stereo partly drawn) [Silibinin] | 

Row | Structure (SMILES) | concentration at 10 days [1] | Basal Plasma (basal plasma level, mice, LC-MS/MS) | Cumulative Brain [2] | Basal Brain (mouse, in vivo) | Basal Brain [1] | Basal Plasma (mouse, in vivo) | Cumulative Plasma [2] | Cumulative Brain (brain after 10 days administration in HFD, mice)
4 | COc1ccc2cc3[n+](cc2c1OC)CCc1cc2c(cc1-3)OCO2 [Berberine] | 20.5 nM |  |  |  |  |  |  | 265 pmol/g

Source: patent publication US12201624B2, “Compositions comprising mixtures of compounds and uses thereof” (Prostasis, LLC, priority 2021, dated 2025)
